Measured values: PMC10058238 (Science Advances, 2023)
Blank lines part the entries; values can stand above or below the molecule they belong to.

Key:
Assay type in all cases: biochemical
[1] = target: T1, AtSPT-ORM1 complex (LCB1, LCB2a, SPTssa, ORM1) (Arabidopsis thaliana, UniProt Q94IB8+Q9C5I0+Q9LSZ9); test: SPT activity, DTNB detection of CoA-SH release, […] nm
T1 construct: full-length codon-optimized cDNAs; N-terminal Flag on SPTssa, other chains untagged; HEK293F, GDN; dimer of 1:1:1:1 protomers; endogenous ceramide copurifies; with Long chain base biosynthesis protein 1; Serine palmitoyltransferase small subunit A

[2] = target: T2, AtSPT-ORM1 complex (LCB1, LCB2a, SPTssa, ORM1) (Arabidopsis thaliana, UniProt Q94IB8+Q9C5I0+Q9LSZ9, Q9C5I0:DEL2-8); test: as above
T2 construct: full-length codon-optimized cDNAs; N-terminal Flag on SPTssa, other chains untagged; HEK293F, GDN; dimer of 1:1:1:1 protomers; endogenous ceramide copurifies; with Long chain base biosynthesis protein 1; Serine palmitoyltransferase small subunit A

[3] = target: T3, AtSPT-ORM1 complex (LCB1, LCB2a, SPTssa, ORM1) (Arabidopsis thaliana, UniProt Q94IB8+Q9C5I0+Q9LSZ9, Q9C5I0:W20R); test: as above; settings: saturating 100 mM L-serine, 100 μM palmitoyl-CoA, 25 μM PLP, pH 7.5, 30 °C; ceramide site
T3 construct: full-length codon-optimized cDNAs; N-terminal Flag on SPTssa, other chains untagged; HEK293F, GDN; dimer of 1:1:1:1 protomers; endogenous ceramide copurifies; with Long chain base biosynthesis protein 1; Serine palmitoyltransferase small subunit A

[4] = target: T4, AtSPT-ORM1 complex (LCB1, LCB2a, SPTssa, ORM1) (Arabidopsis thaliana, UniProt Q94IB8+Q9C5I0+Q9LSZ9, Q9C5I0:N17A/Q9C5I0:S67R); test: as above; settings: saturating 100 mM L-serine, 100 μM palmitoyl-CoA, 25 μM PLP, pH 7.5, 30 °C; ceramide site
T4 construct: full-length codon-optimized cDNAs; N-terminal Flag on SPTssa, other chains untagged; HEK293F, GDN; dimer of 1:1:1:1 protomers; endogenous ceramide copurifies; with Long chain base biosynthesis protein 1; Serine palmitoyltransferase small subunit A

[5] = target: T5, AtSPT-ORM1 complex (LCB1, LCB2a, SPTssa, ORM1) (Arabidopsis thaliana, UniProt Q94IB8+Q9C5I0+Q9LSZ9, Q9C5I0:W88R); test: as above; settings: saturating 100 mM L-serine, 100 μM palmitoyl-CoA, 25 μM PLP, pH 7.5, 30 °C; ceramide site
T5 construct: full-length codon-optimized cDNAs; N-terminal Flag on SPTssa, other chains untagged; HEK293F, GDN; dimer of 1:1:1:1 protomers; endogenous ceramide copurifies; with Long chain base biosynthesis protein 1; Serine palmitoyltransferase small subunit A

[6] = target: T6, AtSPT-ORM1 complex (LCB1, LCB2a, SPTssa, ORM1) (Arabidopsis thaliana, UniProt Q94IB8+Q9C5I0+Q9LSZ9, Q9C5I0:S67R); test: as above
T6 construct: full-length codon-optimized cDNAs; N-terminal Flag on SPTssa, other chains untagged; HEK293F, GDN; dimer of 1:1:1:1 protomers; endogenous ceramide copurifies; with Long chain base biosynthesis protein 1; Serine palmitoyltransferase small subunit A

[7] = target: T7, AtSPT-ORM1 complex (LCB1, LCB2a, SPTssa, ORM1) (Arabidopsis thaliana, UniProt Q94IB8+Q9C5I0+Q9LSZ9, Q9C5I0:DEL2-14); test: as above; settings: saturating 100 mM L-serine, 100 μM palmitoyl-CoA, 25 μM PLP, pH 7.5, 30 °C; ceramide site
T7 construct: full-length codon-optimized cDNAs; N-terminal Flag on SPTssa, other chains untagged; HEK293F, GDN; dimer of 1:1:1:1 protomers; endogenous ceramide copurifies; with Long chain base biosynthesis protein 1; Serine palmitoyltransferase small subunit A

[8] = target: T8, AtSPT-ORM1 complex (LCB1, LCB2a, SPTssa, ORM1) (Arabidopsis thaliana, UniProt Q94IB8+Q9C5I0+Q9LSZ9, Q9C5I0:N17A); test: as above
T8 construct: full-length codon-optimized cDNAs; N-terminal Flag on SPTssa, other chains untagged; HEK293F, GDN; dimer of 1:1:1:1 protomers; endogenous ceramide copurifies; with Long chain base biosynthesis protein 1; Serine palmitoyltransferase small subunit A

[9] = target: T9, AtSPT-ORM1 complex (LCB1, LCB2a, SPTssa, ORM1) (Arabidopsis thaliana, UniProt Q94IB8+Q9C5I0+Q9LSZ9, Q9LSZ9:DEL2-5); test: as above
T9 construct: full-length codon-optimized cDNAs; N-terminal Flag on SPTssa, other chains untagged; HEK293F, GDN; dimer of 1:1:1:1 protomers; endogenous ceramide copurifies; with Long chain base biosynthesis protein 1; Serine palmitoyltransferase small subunit A

[10] = target: T10, AtSPT complex (LCB1, LCB2a, SPTssa) (Arabidopsis thaliana, UniProt Q94IB8+Q9LSZ9); test: as above; settings: 100 mM L-serine, 100 μM palmitoyl-CoA, 25 μM PLP, pH 7.5, 30 °C; active site in LCB2a/LCB1
T10 construct: full-length codon-optimized cDNAs; N-terminal Flag on SPTssa, other chains untagged; HEK293F, GDN; without ORM1; with Serine palmitoyltransferase small subunit A
T10 sequence (Q9LSZ9 1-489): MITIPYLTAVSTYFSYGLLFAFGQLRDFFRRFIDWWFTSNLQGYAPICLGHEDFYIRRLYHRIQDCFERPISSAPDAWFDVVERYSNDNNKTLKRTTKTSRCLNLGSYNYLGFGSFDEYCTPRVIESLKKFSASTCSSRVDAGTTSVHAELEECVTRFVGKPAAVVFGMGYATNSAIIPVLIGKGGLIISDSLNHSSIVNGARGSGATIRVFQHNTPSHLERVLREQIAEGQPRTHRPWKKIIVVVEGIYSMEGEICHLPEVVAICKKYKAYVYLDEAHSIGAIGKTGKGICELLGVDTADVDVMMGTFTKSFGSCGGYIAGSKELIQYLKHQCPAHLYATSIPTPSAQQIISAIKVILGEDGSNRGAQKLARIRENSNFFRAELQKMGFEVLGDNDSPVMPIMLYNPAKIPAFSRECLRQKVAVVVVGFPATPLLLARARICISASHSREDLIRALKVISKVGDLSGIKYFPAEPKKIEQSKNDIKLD
T10 sequence (Q94IB8 1-482): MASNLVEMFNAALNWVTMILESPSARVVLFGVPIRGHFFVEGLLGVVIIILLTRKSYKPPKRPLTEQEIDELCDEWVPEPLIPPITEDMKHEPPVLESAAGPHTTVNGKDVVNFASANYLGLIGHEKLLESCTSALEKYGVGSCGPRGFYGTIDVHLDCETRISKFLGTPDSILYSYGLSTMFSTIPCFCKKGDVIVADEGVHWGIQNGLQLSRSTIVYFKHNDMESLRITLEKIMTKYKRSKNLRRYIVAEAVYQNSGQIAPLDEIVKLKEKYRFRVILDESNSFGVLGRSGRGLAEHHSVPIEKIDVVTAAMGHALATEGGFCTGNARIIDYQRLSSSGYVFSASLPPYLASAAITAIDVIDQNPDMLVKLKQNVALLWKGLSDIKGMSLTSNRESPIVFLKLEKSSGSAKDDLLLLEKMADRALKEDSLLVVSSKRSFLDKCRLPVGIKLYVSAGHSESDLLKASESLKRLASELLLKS
T10 sequence (A8MSB8 1-56 partner): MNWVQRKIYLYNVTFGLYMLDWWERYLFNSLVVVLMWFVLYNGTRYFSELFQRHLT

[11] = target: T1, AtSPT-ORM1 complex (LCB1, LCB2a, SPTssa, ORM1); test: as above; settings: 100 mM L-serine, 100 μM palmitoyl-CoA, 25 μM PLP, pH 7.5, 30 °C; active site in LCB2a/LCB1
[12] = target: T7, AtSPT-ORM1 complex (LCB1, LCB2a, SPTssa, ORM1); test: SPT activity, DTNB detection of CoA-SH release, […] nm; sigmoidal fit; settings: 100 mM L-serine, 25 μM PLP, pH 7.5, 30 °C; active site in LCB2a/LCB1
[13] = target: T8, AtSPT-ORM1 complex (LCB1, LCB2a, SPTssa, ORM1); test: as above; settings: 100 mM L-serine, 25 μM PLP, pH 7.5, 30 °C; active site in LCB2a/LCB1

T1 sequence (Q9C5I0 1-157, one chain of several): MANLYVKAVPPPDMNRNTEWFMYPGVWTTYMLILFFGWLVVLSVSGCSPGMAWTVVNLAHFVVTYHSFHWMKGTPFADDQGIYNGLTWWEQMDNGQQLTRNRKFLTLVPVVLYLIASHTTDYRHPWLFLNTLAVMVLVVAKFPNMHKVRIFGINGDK
T7 sequence (Q9C5I0 entry or part of it DEL2-14, one chain of several): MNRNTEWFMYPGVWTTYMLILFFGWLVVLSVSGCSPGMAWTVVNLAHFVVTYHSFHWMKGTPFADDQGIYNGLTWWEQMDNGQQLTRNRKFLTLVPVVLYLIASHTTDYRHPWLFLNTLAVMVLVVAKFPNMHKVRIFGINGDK
T8 sequence (Q9C5I0 1-157 N17A, one chain of several): as the sequence (Q9C5I0 1-157, one chain of several) above, with N17A counted along it
T4 sequence (Q9C5I0 1-157 N17A/S67R, one chain of several): as the sequence (Q9C5I0 1-157, one chain of several) above, with N17A, S67R counted along it
T5 sequence (Q9C5I0 1-157 W88R, one chain of several): as the sequence (Q9C5I0 1-157, one chain of several) above, with W88R counted along it
T6 sequence (Q9C5I0 1-157 S67R, one chain of several): as the sequence (Q9C5I0 1-157, one chain of several) above, with S67R counted along it
T3 sequence (Q9C5I0 1-157 W20R, one chain of several): as the sequence (Q9C5I0 1-157, one chain of several) above, with W20R counted along it
T2 sequence (Q9C5I0 entry or part of it DEL2-8, one chain of several): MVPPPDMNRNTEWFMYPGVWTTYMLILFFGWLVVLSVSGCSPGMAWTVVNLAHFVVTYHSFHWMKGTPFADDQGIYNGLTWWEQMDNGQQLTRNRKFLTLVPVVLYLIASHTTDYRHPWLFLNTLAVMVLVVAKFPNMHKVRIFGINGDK
T9 sequence (Q9LSZ9 with tags, fused parts or gaps DEL2-5, one chain of several): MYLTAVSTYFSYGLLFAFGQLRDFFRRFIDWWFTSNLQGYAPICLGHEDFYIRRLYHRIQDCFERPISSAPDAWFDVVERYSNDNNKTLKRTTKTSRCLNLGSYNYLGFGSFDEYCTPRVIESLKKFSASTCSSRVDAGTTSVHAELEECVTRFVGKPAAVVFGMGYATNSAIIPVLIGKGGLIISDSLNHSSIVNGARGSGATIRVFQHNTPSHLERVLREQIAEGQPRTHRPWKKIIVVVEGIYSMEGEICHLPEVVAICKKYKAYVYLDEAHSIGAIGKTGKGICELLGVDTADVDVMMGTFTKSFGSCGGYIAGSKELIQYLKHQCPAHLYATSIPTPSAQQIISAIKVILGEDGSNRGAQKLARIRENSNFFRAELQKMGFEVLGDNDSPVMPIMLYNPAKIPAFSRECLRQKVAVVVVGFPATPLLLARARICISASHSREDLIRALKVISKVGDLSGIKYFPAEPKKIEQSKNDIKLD
T9 sequence (Q9C5I0 1-157, stated change not applied, one chain of several): as the sequence (Q9C5I0 1-157, one chain of several) above

IC50 [1]: 3.5 µM
Compound: CCCCCCCCCCCCC/C=C/[C@@H](O)[C@H](CO)NC(=O)CCCCC [C6-ceramide]

IC50 [2]: 1.28 µM
IC50 [1]: 0.32 µM
IC50 [6]: 1.26 µM
IC50 [8]: 1.68 µM
IC50 [9]: 0.991 µM
Compound: CCCCCCCCCCCCCC[C@@H](O)[C@@H](O)[C@H](CO)NC(=O)CCCCC [C6-phytoceramide]
SPT activity, DTNB detection of CoA-SH release, 412 nm [3]: ORM1-W20R or ORM1-W88R mutation also virtually abolished the inhibitory effect of C6-phytoceramide
SPT activity, DTNB detection of CoA-SH release, 412 nm [4]: ORM1-N17A/S67R double mutation nearly eliminated the inhibitory effect of C6-phytoceramide
SPT activity, DTNB detection of CoA-SH release, 412 nm [5]: ORM1-W20R or ORM1-W88R mutation also virtually abolished the inhibitory effect of C6-phytoceramide
SPT activity, DTNB detection of CoA-SH release, 412 nm [7]: basically eliminated the inhibitory effect of C6-phytoceramide

Compound: CCCCCCC(=O)CCCCCC/C=C/C[C@@H](O)[C@H](O)[C@@](N)(CO)C(=O)O [myriocin]
inhibition at 10 μM [10]: can be repressed by a potent SPT-specific inhibitor myriocin
inhibition at 10 μM [11]: can be repressed by a potent SPT-specific inhibitor myriocin

Compound: CCCCCCCCCCCCCCCC(=O)SCCNC(=O)CCNC(=O)[C@H](O)C(C)(C)COP(=O)(O)OP(=O)(O)OC[C@H]1O[C@@H](n2cnc3c(N)ncnc32)[C@H](O)[C@@H]1OP(=O)(O)O [palmitoyl-CoA]
Khalf [12]: the Khalf value of the AtSPT-ORM1 (ORM1-ΔN14) variant toward palmitoyl-CoA was much lower
Khalf [13]: the Khalf value of the variant toward palmitoyl-CoA was nearly seven times as high
